Measurements published in patent publication US8318726B2, “Benzylidineanthracenone linked pyrrolobenzodiazepine hybrids useful as anticancer agents and process for the preparation thereof” (Council of Scientific & Industrial Research, priority 2010, dated 2012).
Read-outs that look alike come from different tables or passages of the source.

How the values were obtained:
[1] = system: duplex-form calf thymus DNA (CT-DNA); assay: Thermal denaturation studies with calf thymus DNA; assay type: binding; details: [PBD]:[DNA] molar ratio 1:5, CT-DNA 100 μM, ligand 20 μM, pH 7.00
Description: Compounds were subjected to thermal denaturation studies with duplex-form calf thymus DNA (CT-DNA) using an adaptation of a reported procedure. Working solutions in aqueous buffer (10 mM NaH2PO41Na2HPO4, 1 mM Na2EDTA, pH 7.00±0.01) containing CT-DNA (100 μm in phosphate) and the PBD (20 μm) were prepared by addition of concentrated PBD solutions in DMSO to obtain a fixed [PBD]/[DNA] molar ratio of 1:5. The DNA-PBD solutions were incubated at 37° C. for 0, 18, and 36 h prior to analysis. Samples were monitored at 260 nm using a Beckman DU-7400 spectrophotometer fitted with high performance temperature controller, and heating was applied at 1° C. min^−1 in the 40-90° C. range. DNA helix→coil transition temperatures (Tm) were obtained from the maxima in the d(A260)/dT derivative plots. Results are given as the mean±standard deviation from three determinations and are corrected for the effects of DMSO co-solvent using a linear correction term. Drug-induced alterations in DNA melting behaviour are given by: ΔTm=Tm(DNA+PBD)−Tm (DNA alone), where the Tm value for the PBD-free CT-DNA is 69.0±0.01.
For a 1:5 molar ratio of [PBD]/[DNA], where CT-DNA concentration=100 μM and ligand concentration=20 μM in aqueous sodium phosphate buffer [10 mM sodium phosphate+1 mM EDTA, pH 7.00±0.01]. The ΔTm for PBD hybrids 5b, 5c, 5d, 5h, 5m and 5r at a [PBD]:[DNA] molar ratio of 1:5 increased to a value of 7.5° C., 9.3° C., 8.9° C., 8.0° C., 7.1° C., and 8.4° C. after 18 h incubation respectively.

[2] = system: breast cancer cell lines (MCF7); assay: In vitro cytotoxicity, SRB assay, breast cancer MCF7; assay type: cell-based, human
Text: (§1) The C8-linked benzylidineanthracenone-PBD hybrids have been tested against eight human tumor cell lines derived from seven cancer types (breast, ovarian, colon, prostate, cervix, lung and oral cancer). For each compound, dose response curves for individual cell lines have been measured at a minimum of five concentrations at 10 fold dilutions. A protocol of 48 hrs continuous drug exposure has been used, and a sulforhodamine B (SRB) protein assay was used to estimate cell viability or growth. The results are expressed as percent of cell growth determined relative to that of untreated control cells. The GI50 values are the concentration for 50% cell growth inhibition (GI50) compared with the control has been calculated.

[3] = system: ovarian cancer cell lines (A2780); assay: In vitro cytotoxicity, SRB assay, ovarian cancer A2780; assay type: cell-based, human
Text: as §1

[4] = system: colon cancer cell lines (Colo205); assay: In vitro cytotoxicity, SRB assay, colon cancer Colo205; assay type: cell-based, human
Text: as §1

[5] = system: prostate cancer cell lines (PC3); assay: In vitro cytotoxicity, SRB assay, prostate cancer PC-3; assay type: cell-based, human
Text: as §1

[6] = system: cervix cancer cell lines (SiHa); assay: In vitro cytotoxicity, SRB assay, cervix cancer SiHa; assay type: cell-based, human
Text: as §1

[7] = system: lung cancer cell lines (A549); assay: In vitro cytotoxicity, SRB assay, lung cancer A-549; assay type: cell-based, human
Text: as §1

[8] = system: lung cancer cell lines (HoP62); assay: In vitro cytotoxicity, SRB assay, lung cancer Hop62; assay type: cell-based, human
Text: as §1

[9] = system: oral cancer cell lines (KB); assay: In vitro cytotoxicity, SRB assay, oral cancer KB; assay type: cell-based, human
Text: as §1

[10] = Homo sapiens, Breast MCF7, 48 hrs continuous drug exposure, SRB, read-out: GI50
[11] = Homo sapiens, breast cancer cell lines (MCF7), exposure period of at least 48 hrs, read-out: GI50 (range for the group)
[12] = Homo sapiens, Ovarian A2780, 48 hrs continuous drug exposure, SRB, read-out: GI50
[13] = Homo sapiens, ovarian cancer cell lines (A2780), exposure period of at least 48 hrs, read-out: GI50 (range for the group)
[14] = Homo sapiens, COLO 205, Colon Colo205, 48 hrs continuous drug exposure, SRB, read-out: GI50
[15] = Homo sapiens, COLO 205, colon cancer cell lines (Colo205), exposure period of at least 48 hrs, read-out: GI50 (range for the group)
[16] = Homo sapiens, Prostate PC-3, 48 hrs continuous drug exposure, SRB, read-out: GI50
[17] = Homo sapiens, prostate cancer cell lines (PC3), exposure period of at least 48 hrs, read-out: GI50 (range for the group)
[18] = Homo sapiens, Cervix SiHa, 48 hrs continuous drug exposure, SRB, read-out: GI50
[19] = Homo sapiens, cervix cancer cell lines (SiHa), exposure period of at least 48 hrs, read-out: GI50 (range for the group)
[20] = Homo sapiens, A549, Lung A-549, 48 hrs continuous drug exposure, SRB, read-out: GI50
[21] = Homo sapiens, lung cancer cell lines (A549), exposure period of at least 48 hrs, read-out: GI50 (range for the group)
[22] = Homo sapiens, HOP-62, Lung Hop62, 48 hrs continuous drug exposure, SRB, read-out: GI50
[23] = Homo sapiens, HOP-62, lung cancer cell lines (HoP62), exposure period of at least 48 hrs, read-out: GI50 (range for the group)
[24] = Homo sapiens, Oral KB, 48 hrs continuous drug exposure, SRB, read-out: GI50
[25] = Homo sapiens, oral cancer cell lines (KB), exposure period of at least 48 hrs, read-out: GI50 (range for the group)

Row | Structure (SMILES) | ΔTm, drug-induced shift in DNA melting temperature ([1]; 0 h incubation at 37° C.) | ΔTm, drug-induced shift in DNA melting temperature ([1]; 18 h incubation at 37° C.) | GI50 [2, 10] | GI50 [2, 11] | GI50 [3, 12] | GI50 [3, 13] | GI50 [4, 14] | GI50 [4, 15] | GI50 [5, 16] | GI50 [5, 17] | GI50 [6, 18] | GI50 [6, 19] | GI50 [7, 20] | GI50 [7, 21] | GI50 [8, 22] | GI50 [8, 23] | GI50 [9, 24] | GI50 [9, 25] | further results
1 | COc1cc(C=C2c3ccccc3C(=O)c3ccccc32)ccc1O [2a, 4-hydroxy-3-methoxybenzylidineanthracenone, reference compound] | 0.4 °C | 0.8 °C |  |  |  |  |  |  |  |  |  |  |  |  |  |  |  |  | 
2 | COc1cc(C=C2c3ccccc3C(=O)c3ccccc32)ccc1OCCCOc1cc2c(cc1OC)C(=O)N1CCC[C@H]1C=N2 [5b, 7-methoxy-8-(3-{2-methoxy-4-[(10-oxo-9,10-dihydro-9-anthracenyliden)methyl]phenoxy}propoxy)-(11aS)-1,2,3,11a-5H-pyrrolo[2,1-c][1,4]benzodiazepin-5-one] | 6.1 °C | 7.5 °C | 140 nM | 90 to 180 nM | 148 nM | 148 to 168 nM | 110 nM | 110 to 140 nM | 180 nM | 150 to 2200 nM | 2200 nM | 2200 to 31000 nM | 1760 nM | 155 to 1940 nM | 190 nM | 170 to 260 nM | 190 nM | 180 to 2500 nM | 
3 | COc1cc(C=C2c3ccccc3C(=O)c3ccccc32)ccc1OCCCCOc1cc2c(cc1OC)C(=O)N1CCC[C@H]1C=N2 [5c, 7-methoxy-8-(4-{2-methoxy-4-[(10-oxo-9,10-dihydro-9-anthracenyliden)methyl]phenoxy}butoxy)-(11aS)-1,2,3,11a-5H-pyrrolo[2,1-c][1,4]benzodiazepin-5-one] | 7.7 °C | 9.3 °C | 90 nM | 90 to 180 nM | 150 nM | 148 to 168 nM | 120 nM | 110 to 140 nM | 180 nM | 150 to 2200 nM |  |  | 1800 nM | 155 to 1940 nM | 180 nM | 170 to 260 nM | 200 nM | 180 to 2500 nM | 
4 | COc1cc(C=C2c3ccccc3C(=O)c3ccccc32)ccc1OCCCCCOc1cc2c(cc1OC)C(=O)N1CCC[C@H]1C=N2 [5d, 7-methoxy-8-(5-{2-methoxy-4-[(10-oxo-9,10-dihydro-9-anthracenyliden)methyl]phenoxy}pentoxy)-(11aS)-1,2,3,11a-5H-pyrrolo[2,1-c][1,4]benzodiazepin-5-one] | 7.4 °C | 8.9 °C | 150 nM | 90 to 180 nM | 150 nM | 148 to 168 nM |  |  | 150 nM | 150 to 2200 nM | 2200 nM | 2200 to 31000 nM | 1940 nM | 155 to 1940 nM | 170 nM | 170 to 260 nM | 180 nM | 180 to 2500 nM | 
5 | COc1cc2c(cc1OCCCCOc1ccc(C=C3c4ccccc4C(=O)c4ccccc43)cc1)N=C[C@@H]1CCCN1C2=O [5h, 7-methoxy-8-(4-{4-[(10-oxo-9,10-dihydro-9-anthracenyliden)methyl]phenoxy}butoxy)-(11aS)-1,2,3,11a-5H-pyrrolo[2,1-c][1,4]benzodiazepin-5-one] | 6.6 °C | 8.0 °C | 160 nM | 90 to 180 nM | 168 nM | 148 to 168 nM | 110 nM | 110 to 140 nM | 2200 nM | 150 to 2200 nM | 2500 nM | 2200 to 31000 nM | 150 nM | 155 to 1940 nM | 200 nM | 170 to 260 nM | 2400 nM | 180 to 2500 nM | 
6 | COc1cc2c(cc1OCCCCOc1cccc(C=C3c4ccccc4C(=O)c4ccccc43)c1)N=C[C@@H]1CCCN1C2=O [5m, 7-methoxy-8-(4-{3-[(10-oxo-9,10-dihydro-9-anthracenyliden)methyl]phenoxy}butoxy)-(11aS)-1,2,3,11a-5H-pyrrolo[2,1-c][1,4]benzodiazepin-5-one] | 6.5 °C | 7.1 °C | 170 nM | 90 to 180 nM | 160 nM | 148 to 168 nM | 140 nM | 110 to 140 nM | 180 nM | 150 to 2200 nM | 2200 nM | 2200 to 31000 nM | 1820 nM | 155 to 1940 nM | 230 nM | 170 to 260 nM | 2400 nM | 180 to 2500 nM | 
7 | COc1ccc(C=C2c3ccccc3C(=O)c3ccccc32)cc1OCCCCOc1cc2c(cc1OC)C(=O)N1CCC[C@H]1C=N2 [5r, 7-methoxy-8-(4-{2-methoxy-5-[(10-oxo-9,10-dihydro-9-anthracenyliden)methyl]phenoxy}butoxy)-(11aS)-1,2,3,11a-5H-pyrrolo[2,1-c][1,4]benzodiazepin-5-one] | 6.3 °C | 8.4 °C | 180 nM | 90 to 180 nM | 166 nM | 148 to 168 nM | 140 nM | 110 to 140 nM | 2100 nM | 150 to 2200 nM | 31000 nM | 2200 to 31000 nM | 1900 nM | 155 to 1940 nM | 260 nM | 170 to 260 nM | 2500 nM | 180 to 2500 nM | 
8 | COc1cc2c(cc1O)N=CC1CCCN1C2=O (centres unmarked) [DC-81, reference compound] | 0.3 °C | 0.7 °C |  |  |  |  |  |  |  |  |  |  |  |  |  |  |  |  | GI50 ([2]; Breast MCF7, 48 hrs continuous drug exposure, SRB, read-out: GI50): 2190 nM; GI50 ([3]; Ovarian A2780, 48 hrs continuous drug exposure, SRB, read-out: GI50): 150 nM; GI50 ([4]; Colon Colo205, 48 hrs continuous drug exposure, SRB, read-out: GI50): 120 nM; GI50 ([5]; Prostate PC-3, 48 hrs continuous drug exposure, SRB, read-out: GI50): 200 nM; GI50 ([6]; Cervix SiHa, 48 hrs continuous drug exposure, SRB, read-out: GI50): 170 nM; GI50 ([7]; Lung A-549, 48 hrs continuous drug exposure, SRB, read-out: GI50): 380 nM; GI50 ([8]; Lung Hop62, 48 hrs continuous drug exposure, SRB, read-out: GI50): 150 nM; GI50 ([9]; Oral KB, 48 hrs continuous drug exposure, SRB, read-out: GI50): 200 nM
